# Patent US5607691A, “Compositions and methods for enhanced drug delivery” (priority 1995, dated 1997)
# Structures can show the parent of a compound that is named as a salt.
# Assay: in vitro
# Assay type: in vitro ADME, human
# Conditions: Table 4; human serum, 37° C.
# Excerpt: Table 4 lists the serum half-lives for several model compounds and two representative pharmaceutical agent-chemical modifier complexes using an in vitro assay system described in the Experimental section below. Of course, the serum half-lives will vary in vivo depending upon the age and health condition of the patient. Each complex comprises a model compound or a pharmaceutical agent, a spacer group, and a chemical modifier. Many of the model compounds utilize 4-nitrophenyl(ethanol, propanol, or cyclohexanol) or 4-nitrophenylethylamine as the "model" pharmaceutical agent. A more complete listing of serum half-lives may be found in the Experimental section below.
# General procedure for serum hydrolysis of pharmaceutical agent-modifier complexes
# Stock solutions (6 mM) of the pharmaceutical agent-modifier complexes were prepared in ethanol (by vortexing, sonication or warming at 37° C. if necessary). If required for solubility, a drop of dimethylsulfoxide, dimethylformamide or methanol may be added. (Acetonitrile cannot be used because it deactivates the serum enzymes.)
# HPLC separation methods were established for each study by dilution of the above stock solution (6 μl) in acetonitrile (1 ml) to give a 36 μM solution. Samples (10 μl) were injected onto a Nucleosil 5C8 (250×4 mmID) and guard column (11×4 mm ID) and eluted with a mobile phase of approximately 65% HPLC grade water and 35% of a solution of 0.1% trifluoroacetic acid in acetonitrile, the exact proportions being adjusted in each case to give optimum separation and run times.
# Freshly defrosted human serum (3 ml, Sigma) was warmed at 37° C. for five minutes and then 60 μl of the agent-modifier complex stock solution was added with vortexing. […] The aliquots were added to 800 μl of 2% zinc sulfate solution in a 1.5 ml disposable microcentrifuge tube, vortexed immediately and centrifuged at 14,000 RPM for 3 minutes. The supernatants (10 μl) were then injected onto the HPLC and peak areas were used to determine the % remaining. Serum blanks were prepared similarly by addition of serum to the zinc sulfate solution followed by centrifugation, and time=0 samples were also prepared by adding serum to the zinc sulfate solution followed by addition of the complex and separation by centrifugation. The time=0 samples, as well as the original stock solutions, were also used to study the stability of the complex in the absence of enzyme. Half-lives were calculated using the equation
# by plotting time (x) vs. ln % remaining (y) to obtain the slope (m) and the y intercept (b).
row,Compound,In vitro Half-Life [min]
1,CC(=O)OC(CC(=O)OCCCCCCCCCC(=O)OCC(=O)OC1=CC2=CC[C@H]3[C@@H]4CC[C@H](C(C)=O)[C@@]4(C)CC[C@@H]3[C@@]2(C)CC1)C[N+](C)(C)C (stereo partly shown) [Progesterone 3-{2-O-[10-O-(O-acetylcarnitinyl)decanoyl]glycolic acid} enol ester],28.9

# Same assay, conditions: Table 5; human serum, 37° C.
row,Compound,Serum Half-life [min]
1,"digoxin-12-{N-[6-(N',N',N'-trimethylamino)hexanoyloxymethyl]glycinoyloxymethyl} carbonate-3""',4""'-cyclic carbonate, bromide salt",7
2,CC(=O)OC(CC(=O)OCCCCCCCCCC(=O)OCC(=O)OC1=CC2=CC[C@H]3[C@@H]4CC[C@H](C(C)=O)[C@@]4(C)CC[C@@H]3[C@@]2(C)CC1)C[N+](C)(C)C (stereo partly shown) [Progesterone 3-{2-O-[10-O-(O-acetylcarnitinyl)decanoyl]glycolic acid} enol ester],28.9
3,"CCCCCCCCCCCC(=O)OCn1c(=O)c(F)cn(C(C)OC(=O)CCC[N+](C)(C)C)c1=O.[I-] (stereo not shown) [5-fluorouracil-1-(N-(4-trimethylammoniobutyroyloxy-1-ethyl)-3-(N-lauroyloxymethyl), iodide salt]",13

# Same assay, conditions: human, serum, Table 4; human serum, 37° C.; read-out: In vitro Half-Life (converted)
row,Compound,half-life [min]
1,CC(=O)O[C@H](CC(=O)NCCC(=O)OCCc1ccc([N+](=O)[O-])cc1)C[N+](C)(C)C [2-(4-nitrophenyl)ethyl 3-(O-acetyl-L-carnitinamido)propanoate],5.5
2,CC(=O)O[C@H](CC(=O)NCCCCCC(=O)OC(C)Cc1ccc([N+](=O)[O-])cc1)C[N+](C)(C)C (stereo partly drawn) [1-(4-nitrophenyl)-2-propanol 6-(O-acetyl-L-carnitinamido)hexanoate ester],21.4

# Same assay, conditions: human, serum, Table 4; read-out: serum half-life (converted)
row,Compound,half-life [min]
1,CC(=O)O[C@H](CC(=O)NCCC(=O)OCCc1ccc([N+](=O)[O-])cc1)C[N+](C)(C)C [2-(4-nitrophenyl)ethyl 3-(O-acetyl-L-carnitinamido)propanoate],5.5
2,CC(=O)O[C@H](CC(=O)NCCCCCC(=O)OC(C)Cc1ccc([N+](=O)[O-])cc1)C[N+](C)(C)C (stereo partly drawn) [1-(4-nitrophenyl)-2-propanol 6-(O-acetyl-L-carnitinamido)hexanoate ester],21.4

# Same assay, conditions: human, serum, Table 5; human serum, 37° C.; read-out: Serum Half-life (converted)
row,Compound,half-life [min]
1,"CCCCCCCCCCCCCCCC(=O)OC(CC(=O)NCCCCCCOC(=O)OC1C(O)CC(OC2C(O)CC(OC3C(O)CC(OC4CCC5(C)C(CCC6C5CC(O)C5(C)C(C7=CC(=O)OC7)CCC65O)C4)OC3C)OC2C)OC1C)C[N+](C)(C)C (stereo not shown) [digoxin-4""'-6-O-palmitoylcarnitinamido)hexyl carbonate, chloride salt]",21
2,"COc1ccc2c(c1)c(CC(=O)OCC[N+](C)(C)CCO)c(C)n2C(=O)c1ccc(Cl)cc1 [indomethacin 2-(N-(2-hydroxyethyl)-N,N-dimethyl) aminoethyl ester, bromide salt]",0.977
3,"CC1OC(OC2C(O)CC(OC3C(O)CC(OC4CCC5(C)C(CCC6C5CC(O)C5(C)C(C7=CC(=O)OC7)CCC65O)C4)OC3C)OC2C)CC(O)C1OC(=O)CCCN(C)C (stereo not shown) [digoxin-4'""-4-(dimethylamino)butyrate]",84
4,"C[C@]12CC[C@@H]3c4ccc(O)cc4CC[C@H]3[C@@H]1CC[C@@H]2OC(=O)OCC[N+](C)(C)C [3-hydroxy-17β-estra-trienyl N,N,N-trimethylaminoethyl carbonate, iodide salt]",16
5,"CCCCCCCCCCCC(=O)OCn1cc(F)c(=O)n(COC(=O)OCC[N+](C)(C)C)c1=O [5-fluorouracil-1-(lauroyloxymethyl)-3-(cholinecarbonyloxymethyl), iodide salt]",27
6,"COc1ccc2c(c1)c(CC(=O)OCCNC(=O)CCCCC[N+](C)(C)C)c(C)n2C(=O)c1ccc(Cl)cc1 [indomethacin 2-[N-(6'-N',N',N'-trimethylamino)-hexanamido]ethyl ester, iodide salt]",1360
7,"CC(=O)O[C@H](CC(=O)O[C@H]1CC[C@@]2(C)[C@H](CC[C@@H]3[C@@H]2CC[C@]2(C)[C@@H](C4=CC(=O)OC4)CC[C@]32O)C1)C[N+](C)(C)C [digitoxigenin-3-(O-acetyl-L-carnitine) ester, chloride salt]",324
8,"CCCC[N+](C)(C)CCOC(=O)Cc1c(C)n(C(=O)c2ccc(Cl)cc2)c2ccc(OC)cc12 [indomethacin 2-(N-(1-butyl)-N,N-dimethylaminoethyl ester, bromide salt]",0.633
9,"CC1OC(OC2CCC3(C)C(CCC4C3CC(OC(=O)OC[N+](C)(C)C)C3(C)C(C5=CC(=O)OC5)CCC43O)C2)CC(O)C1OC1CC(O)C(OC2CC3OC(=O)OC3C(C)O2)C(C)O1 (stereo not shown) [digoxin-12-(N,N,N-trimethylaminomethyl)-carbonate 3""',4'""-cyclic carbonate, chloride salt]",42
10,"CCn1cc(C(=O)OCOC(=O)CCCCC[N+](C)(C)C)c(=O)c2ccc(C)nc21 [nalidixic acid 6-(N,N,N-trimethylamino)-hexanoyloxymethyl ester, iodide salt]",4.8
11,"C[C@]12CC[C@H]3[C@@H](CCC4=CC(=O)CC[C@@]43C)[C@@H]1CC[C@@H]2OC(=O)OCOC(=O)C[N+](C)(C)C [testosterone-17-betainoyloxymethyl carbonate, iodide salt]",0.633
12,"C[C@]12CC[C@H]3[C@@H](CCC4=CC(=O)CC[C@@]43C)[C@@H]1CC[C@@H]2OC(=O)OCC[N+](C)(C)C [testosterone-17-choline carbonate, bromide salt]",29
13,CC(=O)O[C@H](CC(=O)Oc1ccc2c(c1)CC[C@@H]1[C@@H]2CC[C@]2(C)[C@@H](O)CC[C@@H]12)C[N+](C)(C)C [17β-estradiol-3-(O-acetyl-L-carnitine) ester],8
14,"COc1ccc2c(c1)c(CC(=O)OCCN(C)C(=O)CCCCC[N+](C)(C)C)c(C)n2C(=O)c1ccc(Cl)cc1 [indomethacin 2-[N-methyl-N-(6'-N',N',N'-trimethyl-amino)hexanamido]ethyl ester, iodide salt]",204
15,"C[C@H]1O[C@@H](O[C@H]2[C@@H](O)C[C@H](O[C@H]3[C@@H](O)C[C@H](O[C@H]4CC[C@@]5(C)[C@H](CC[C@@H]6[C@@H]5C[C@@H](O)[C@]5(C)[C@@H](C7=CC(=O)OC7)CC[C@]65O)C4)O[C@@H]3C)O[C@@H]2C)C[C@H](O)[C@@H]1OC(=O)CCCOC(=O)CCC[N+](C)(C)C [digoxin-4""'-4-(4-trimethylaminobutyroyloxy)butyrate, bromide salt]",420
16,"Cn1c(=O)c2c(ncn2COC(=O)CCC[N+](C)(C)C)n(C)c1=O [theophylline-7-[4-(N,N,N-trimethylamino)-butyroyloxymethyl], bromide salt]",144
17,O=C(OCCc1ccc([N+](=O)[O-])cc1)c1cccnc1 [p-nitrophenylethyl alcohol nicotinate ester],0.433
18,"CC1OC(OC2C(O)CC(OC3C(O)CC(OC4CCC5(C)C(CCC6C5CC(O)C5(C)C(C7=CC(=O)OC7)CCC65O)C4)OC3C)OC2C)CC(O)C1OC(=O)OCCCCCCOC(=O)C[N+](C)(C)C (stereo not shown) [digoxin-4""'-[1-(6-betainoyloxyhexyl)]carbonate, chloride salt]",21
19,"COC(=O)CC(C[N+](C)(C)C)OC(=O)Cc1c(C)n(C(=O)c2ccc(Cl)cc2)c2ccc(OC)cc12 (racemic) [O-indomethacinyl-(D,L-carnitine methyl ester), iodide salt]",660
20,"CC1OC(OC2CCC3(C)C(CCC4C3CC(OC(=O)OCC[N+](C)(C)C)C3(C)C(C5=CC(=O)OC5)CCC43O)C2)CC(O)C1OC1CC(O)C(OC2CC3OC(=O)OC3C(C)O2)C(C)O1 (stereo not shown) [digoxin-12-(choline carbonate)-3'"",4'""-cyclic carbonate, bromide salt]",1740
21,"C[C@]12CC[C@H]3[C@@H](CCC4=CC(=O)CC[C@@]43C)[C@@H]1CC[C@@H]2OC(=O)OCOC(=O)CCCCC[N+](C)(C)C [testosterone-17-(6-trimethylammoniohexanoyloxymethyl) carbonate, bromide salt]",19
22,"C[C@H]1O[C@@H](O[C@H]2[C@@H](O)C[C@H](O[C@H]3[C@@H](O)C[C@H](O[C@H]4CC[C@@]5(C)[C@H](CC[C@@H]6[C@@H]5C[C@@H](OC(=O)[C@@H]5CCC[N+]5(C)C)[C@]5(C)[C@@H](C7=CC(=O)OC7)CC[C@]65O)C4)O[C@@H]3C)O[C@@H]2C)C[C@@H]2OC(=O)O[C@@H]21 [digoxin-12-stachydrine ester-3""',4""'-cyclic carbonate, chloride salt]",294
23,"CCCCCCCCCCCCCCCC(=O)O[C@H](CC(=O)O[C@H]1CC[C@@]2(C)[C@H](CC[C@@H]3[C@@H]2CC[C@]2(C)[C@@H](C4=CC(=O)OC4)CC[C@]32O)C1)C[N+](C)(C)C [digitoxigenin-3-(O-palmityl-L-carnitine) ester, chloride salt]",~180
24,CC(=O)O[C@H](CC(=O)NCCC(=O)OCCc1ccc([N+](=O)[O-])cc1)C[N+](C)(C)C [2-(4-nitrophenyl)ethyl 3-(O-acetyl-L-carnitinamido)propanoate],5.5
25,CC(=O)O[C@H](CC(=O)NCCCCCC(=O)OC(C)Cc1ccc([N+](=O)[O-])cc1)C[N+](C)(C)C (stereo partly drawn) [1-(4-nitrophenyl)-2-propanol 6-(O-acetyl-L-carnitinamido)hexanoate ester],21.4
26,"C#CC[N+](C)(COC(=O)CCC)C(C)Cc1ccccc1 (stereo not shown) [deprenyl-N-butyroyloxymethyl, iodide salt]",0.283
27,"C[C@@H](OC(=O)c1ccc[n+](C)c1)[C@H](NC(=O)OCc1ccccc1)C(=O)OCc1ccccc1 [threonine, L-isomer, HO-trigonellate ester, N-CBZ benzyl ester]",40
28,"COC(=O)Cc1c(C)n(C(=O)c2ccc(Cl)cc2)c2ccc(OC)cc12 [indomethacin methyl ester, reference compound]",8640
29,COc1ccc2c(c1)c(CC(=O)COC(=O)OCC[N+](C)(C)C)c(C)n2C(=O)c1ccc(Cl)cc1 [indomethacin hydroxymethyl ketone choline iodide carbonate],1.08
